Measured values as given in patent US6642256B2, “Piperidine derivatives as subtype selective N-Methyl-D-Aspartate antagonists” (Warner-Lambert Company LLC, priority 2000, dated 2003).

Key:
Male Wistar albino rats = test: Formalin footpad test (FT); format: in vivo, rat; conditions: Table 1; PO; statistically significant decrease in late-phase pain behaviour versus vehicle
Protocol: a. The Formalin Footpad Test (FT):
The FT model was used to test invention compounds for pain alleviating properties. The model produces a biphasic response in a test animal that results from a change in pain intensity over time. The FT model utilizes an injection of dilute formalin into the hindpaw of a rodent, which produces high intensity acute pain behaviors which are measured for the first 10 minutes post formalin injection (early phase responding). High intensity acute pain behaviors include rapid licking or biting of the injected hindpaw. The second phase is a prolonged period of lower intensity pain behaviors (late phase responding) which are measured from 11 to 45 minutes post-formalin injection.
Male Wistar albino rats (Harlan Sprague-Dawley Labs), weighing approximately 100 g at the time of testing, were used. Animals were group-housed and acclimated to the housing facility for 1 week prior to testing. Animals were maintained on a 12-hour/12-hour light/dark cycle and fed block rodent chow. From 4 to 8 animals were randomly assigned to either a vehicle-only dose group or a vehicle-plus invention compound treatment group on the day of testing.
The testing apparatus was a 16″×8″ box divided into two 8″×8″ testing chambers. Each testing chamber comprised a floor and 3 walls made of clear plastic mirrors, and a fourth wall which was clear plastic that allowed observation of animal behavior. The top of each chamber was covered with a metal screen during testing to prevent animals from climbing out of the chamber. Two animals were tested simultaneously in the adjoining boxes, but animals were unable to observe one another.
Animals were weighed and placed into holding cages (2 animals per cage) in the testing room prior to dosing. Following approximately 30 minutes of acclimation to the testing room, each pair of animals was administered orally (PO) by gavage a mixture of invention compound plus vehicle or vehicle alone. The treated animals were then placed in individual test chambers and allowed to acclimate to the chambers for at least 20 minutes. Then 50 μL of a 2.5% solution of formalin in vehicle was injected subcutaneously (SC) in the plantar surface of the left hindpaw from 30 to 120 minutes after administration of the invention compound. A session timer was started following the formalin injection, and the amount of time the animal spent licking or biting the injected paw was clocked with a hand-held stopwatch. The cumulative time spent engaging in a pain response was manually recorded at 5-minute intervals for 45 minutes post formalin injection. Early phase responding included Minutes 0 to 10, and late phase responding included Minutes 11 to 45. At the end of the testing period, animals were sacrificed using carbon dioxide. […]

[1] = tested on: 6-Hydroxydopamine-lesioned rats; test: 6-OHDA lesioned rat assay (potentiation of L-DOPA-induced contraversive rotation); format: in vivo; conditions: Table 1; po; statistically significant increase in contraversive rotations versus L-DOPA alone (L-DOPA methyl ester 10 mg/kg SC)
Description: b. The 6-OHDA Lesioned Rat Assay (6-OHDA):
The 6-OHDA model is used to test compounds of the invention for anti-Parkinsonism activity.
(i) 6-OHDA lesioned rat assay protocol:
6-Hydroxydopamine-lesioned rats were used (see Ungerstedt U, Arbuthnott G W: “Quantitative recording of rotational behavior in rats after 6-hydroxy-dopamine lesions of the nigrostraiatal dopamine system”, Brain Res., 1971;24(3):485-493). Adult male Sprague-Dawley rats were anesthetized with chloral hydrate, and unilateral lesions of the nigrostriatal dopamine system were accomplished by infusion of 8 μg of 6-hydroxydopamine HBr (6-OHDA) into the right medial forebrain bundle. Rats were pretreated 30 minutes before surgery with desipramine HCl 25 mg/kg intraperitoneally (IP) to protect noradrenergic neurons, and pargyline 25 mg/kg IP to potentiate the effects of 6-OHDA. A minimum of 3 weeks after surgery, the rotational behavior induced by apomorphine HCL 50 μg/kg administered subcutaneously (SC) was assessed.
(ii) Measurement of animal behavior:
Rotational behavior was measured using an automatic rotometer system (Rotorat Rotational Activity System, MED Associates, Georgia, Vt.). Antiparkinsonian activity was assessed as the ability of the invention compounds to potentiate the contraversive rotation induced by L-DOPA methyl ester, dosed at 10 mg/kg SC, over a 6-hour period. […]

| SMILES | FT (mg/kg), active dose (Male Wistar albino rats) [mg/kg] | 6-OHDA (mg/kg), minimum effective dose (MED) [1] |
| --- | --- | --- |
| O=c1[nH]c2ccc(C3=NOC(CN4CCC(Cc5ccccc5)CC4)C3)cc2o1 (racemic) [Example 1, 6-[5-(4-Benzylpiperidin-1-ylmethyl)-4,5-dihydroisoxazol-3-yl]-3H-benzoxazol-2-one] | >10 | >10 (po) mg/kg |
| O=c1[nH]c2ccc(C3=NOC(CN4CCC(Cc5ccc(F)cc5)CC4)C3)cc2o1 (single isomer, unassigned; (-)) [Example 4b, (−)-6-{5-[4-(4-Fluorobenzyl)piperidin-1-ylmethyl]4,5-dihydroisoxazol-3-yl}-3H-benzoxazol-2-one] | >30 | >30 (po) mg/kg |
